Test results taken from the CheMixHub viscosity set.
± gives the uncertainty stated by the source.

Experiment: xn = mol fraction of the nth substance listed
Details: 101 kPa

Compound: CC(C)CCO + c1ccccc1
- viscosity (293.15 K, x1 = 0.05): 0.673 ± 0.008 mPa·s
- viscosity (293.15 K, x1 = 0.1): 0.705 ± 0.008 mPa·s
- viscosity (293.15 K, x1 = 0.15): 0.739 ± 0.009 mPa·s
- viscosity (293.15 K, x1 = 0.2): 0.777 ± 0.009 mPa·s
- viscosity (293.15 K, x1 = 0.25): 0.819 ± 0.01 mPa·s
- viscosity (293.15 K, x1 = 0.3): 0.866 ± 0.01 mPa·s
- viscosity (293.15 K, x1 = 0.35): 0.919 ± 0.011 mPa·s
- viscosity (293.15 K, x1 = 0.4): 0.979 ± 0.011 mPa·s
- viscosity (293.15 K, x1 = 0.45): 1.046 ± 0.012 mPa·s
- viscosity (293.15 K, x1 = 0.5): 1.124 ± 0.013 mPa·s
- viscosity (293.15 K, x1 = 0.55): 1.214 ± 0.014 mPa·s
- viscosity (293.15 K, x1 = 0.6): 1.321 ± 0.015 mPa·s
- viscosity (293.15 K, x1 = 0.65): 1.447 ± 0.017 mPa·s
- viscosity (293.15 K, x1 = 0.7): 1.6 ± 0.018 mPa·s
- viscosity (293.15 K, x1 = 0.75): 1.789 ± 0.021 mPa·s
- viscosity (298.15 K, x1 = 0.05): 0.627 ± 0.007 mPa·s
- viscosity (298.15 K, x1 = 0.1): 0.656 ± 0.008 mPa·s
- viscosity (298.15 K, x1 = 0.15): 0.688 ± 0.008 mPa·s
- viscosity (298.15 K, x1 = 0.2): 0.723 ± 0.008 mPa·s
- viscosity (298.15 K, x1 = 0.25): 0.761 ± 0.009 mPa·s
- viscosity (298.15 K, x1 = 0.3): 0.804 ± 0.009 mPa·s
- viscosity (298.15 K, x1 = 0.35): 0.852 ± 0.01 mPa·s
- viscosity (298.15 K, x1 = 0.4): 0.906 ± 0.011 mPa·s
- viscosity (298.15 K, x1 = 0.45): 0.967 ± 0.011 mPa·s
- viscosity (298.15 K, x1 = 0.5): 1.037 ± 0.012 mPa·s
- viscosity (298.15 K, x1 = 0.55): 1.119 ± 0.013 mPa·s
- viscosity (298.15 K, x1 = 0.6): 1.214 ± 0.014 mPa·s
- viscosity (298.15 K, x1 = 0.65): 1.326 ± 0.015 mPa·s
- viscosity (298.15 K, x1 = 0.7): 1.462 ± 0.017 mPa·s
- viscosity (298.15 K, x1 = 0.75): 1.629 ± 0.019 mPa·s
- viscosity (303.15 K, x1 = 0.05): 0.586 ± 0.007 mPa·s
- viscosity (303.15 K, x1 = 0.1): 0.612 ± 0.007 mPa·s
- viscosity (303.15 K, x1 = 0.15): 0.641 ± 0.008 mPa·s
- viscosity (303.15 K, x1 = 0.2): 0.673 ± 0.008 mPa·s
- viscosity (303.15 K, x1 = 0.25): 0.708 ± 0.008 mPa·s
- viscosity (303.15 K, x1 = 0.3): 0.748 ± 0.009 mPa·s
- viscosity (303.15 K, x1 = 0.35): 0.791 ± 0.009 mPa·s
- viscosity (303.15 K, x1 = 0.4): 0.84 ± 0.01 mPa·s
- viscosity (303.15 K, x1 = 0.45): 0.896 ± 0.01 mPa·s
- viscosity (303.15 K, x1 = 0.5): 0.96 ± 0.011 mPa·s
- viscosity (303.15 K, x1 = 0.55): 1.033 ± 0.012 mPa·s
- viscosity (303.15 K, x1 = 0.6): 1.118 ± 0.013 mPa·s
- viscosity (303.15 K, x1 = 0.65): 1.219 ± 0.014 mPa·s
- viscosity (303.15 K, x1 = 0.7): 1.339 ± 0.015 mPa·s
- viscosity (308.15 K, x1 = 0.05): 0.548 ± 0.006 mPa·s
- viscosity (308.15 K, x1 = 0.1): 0.573 ± 0.007 mPa·s
- viscosity (308.15 K, x1 = 0.15): 0.6 ± 0.007 mPa·s
- viscosity (308.15 K, x1 = 0.2): 0.629 ± 0.007 mPa·s
- viscosity (308.15 K, x1 = 0.25): 0.661 ± 0.008 mPa·s
- viscosity (308.15 K, x1 = 0.3): 0.697 ± 0.008 mPa·s
- viscosity (308.15 K, x1 = 0.35): 0.737 ± 0.009 mPa·s
- viscosity (308.15 K, x1 = 0.4): 0.782 ± 0.009 mPa·s
- viscosity (308.15 K, x1 = 0.45): 0.832 ± 0.01 mPa·s
- viscosity (308.15 K, x1 = 0.5): 0.89 ± 0.01 mPa·s
- viscosity (308.15 K, x1 = 0.55): 0.956 ± 0.011 mPa·s
- viscosity (308.15 K, x1 = 0.6): 1.032 ± 0.012 mPa·s
- viscosity (308.15 K, x1 = 0.65): 1.122 ± 0.013 mPa·s
- viscosity (308.15 K, x1 = 0.7): 1.23 ± 0.014 mPa·s
- viscosity (313.15 K, x1 = 0.05): 0.515 ± 0.006 mPa·s
- viscosity (313.15 K, x1 = 0.1): 0.537 ± 0.006 mPa·s
- viscosity (313.15 K, x1 = 0.15): 0.562 ± 0.007 mPa·s
- viscosity (313.15 K, x1 = 0.2): 0.589 ± 0.007 mPa·s
- viscosity (313.15 K, x1 = 0.25): 0.618 ± 0.007 mPa·s
- viscosity (313.15 K, x1 = 0.3): 0.651 ± 0.008 mPa·s
- viscosity (313.15 K, x1 = 0.35): 0.688 ± 0.008 mPa·s
- viscosity (313.15 K, x1 = 0.4): 0.728 ± 0.009 mPa·s
- viscosity (313.15 K, x1 = 0.45): 0.774 ± 0.009 mPa·s
- viscosity (313.15 K, x1 = 0.5): 0.826 ± 0.01 mPa·s
- viscosity (313.15 K, x1 = 0.55): 0.886 ± 0.01 mPa·s
- viscosity (313.15 K, x1 = 0.6): 0.955 ± 0.011 mPa·s
- viscosity (313.15 K, x1 = 0.65): 1.036 ± 0.012 mPa·s
- viscosity (313.15 K, x1 = 0.7): 1.131 ± 0.013 mPa·s
- viscosity (318.15 K, x1 = 0.05): 0.484 ± 0.006 mPa·s
- viscosity (318.15 K, x1 = 0.1): 0.505 ± 0.006 mPa·s
- viscosity (318.15 K, x1 = 0.15): 0.527 ± 0.006 mPa·s
- viscosity (318.15 K, x1 = 0.2): 0.552 ± 0.007 mPa·s
- viscosity (318.15 K, x1 = 0.25): 0.58 ± 0.007 mPa·s
- viscosity (318.15 K, x1 = 0.3): 0.61 ± 0.007 mPa·s
- viscosity (318.15 K, x1 = 0.35): 0.643 ± 0.008 mPa·s
- viscosity (318.15 K, x1 = 0.4): 0.68 ± 0.008 mPa·s
- viscosity (318.15 K, x1 = 0.45): 0.722 ± 0.008 mPa·s
- viscosity (318.15 K, x1 = 0.5): 0.769 ± 0.009 mPa·s
- viscosity (318.15 K, x1 = 0.55): 0.823 ± 0.01 mPa·s
- viscosity (318.15 K, x1 = 0.6): 0.885 ± 0.01 mPa·s
- viscosity (318.15 K, x1 = 0.65): 0.957 ± 0.011 mPa·s
- viscosity (318.15 K, x1 = 0.7): 1.042 ± 0.012 mPa·s
- viscosity (323.15 K, x1 = 0.05): 0.456 ± 0.005 mPa·s
- viscosity (323.15 K, x1 = 0.1): 0.475 ± 0.006 mPa·s
- viscosity (323.15 K, x1 = 0.15): 0.496 ± 0.006 mPa·s
- viscosity (323.15 K, x1 = 0.2): 0.519 ± 0.006 mPa·s
- viscosity (323.15 K, x1 = 0.25): 0.544 ± 0.006 mPa·s
- viscosity (323.15 K, x1 = 0.3): 0.572 ± 0.007 mPa·s
- viscosity (323.15 K, x1 = 0.35): 0.602 ± 0.007 mPa·s
- viscosity (323.15 K, x1 = 0.4): 0.636 ± 0.008 mPa·s
- viscosity (323.15 K, x1 = 0.45): 0.674 ± 0.008 mPa·s
- viscosity (323.15 K, x1 = 0.5): 0.717 ± 0.008 mPa·s
- viscosity (323.15 K, x1 = 0.55): 0.766 ± 0.009 mPa·s
- viscosity (323.15 K, x1 = 0.6): 0.822 ± 0.01 mPa·s
- viscosity (323.15 K, x1 = 0.65): 0.887 ± 0.01 mPa·s
- viscosity (323.15 K, x1 = 0.7): 0.962 ± 0.011 mPa·s
